Experimental data reported in patent US12201796B2, “Devices configured to provide treatment at an Abreu brain thermal tunnel” (Brain Tunnelgenix Technologies Corp., priority 2014, dated 2025).

Experiments:
[1] = comparison of caffeine absorption into the blood stream from a patch on ABTT terminus and a patch on an upper arm; format: in vivo
Description: One experimental technique used by Applicant to verify the efficacy of the systems, apparatuses, devices, processes, and methods disclosed herein was to compare absorption of a chemical into the blood stream. The chosen chemical was caffeine, and a comparison was made between distribution of caffeine in the body from a 15 mm by 15 mm patch placed on ABTT terminus 10 and a 15 mm by 15 mm patch placed on an upper arm. Caffeine concentration was measured in the same location on the body. […] As is evident from FIG. 106, the peak concentration of caffeine from the patch placed on the arm occurred five hours after placement of the patch, which peak concentration from the patch placed on ABTT terminus 10 was about 30 minutes after placement of the patch. […] Other compounds tested show similar results. […] In addition, it should be noted that use of a known patch would be disadvantageous if applied to ABTT terminus 10, because a lesser quantity of a drug is required to achieve the same results. […] In order to achieve the same effect at ABTT terminus 10 as application of a conventional patch in a conventional application, only about ⅔ the quantity of a drug is required for the same effect at ABTT terminus 10.

[2] = in vivo; cited from earlier work
[3] = transdermal melatonin patch on the skin of ABTT target area, research setting; details: patch with water, propylene glycol, lauric acid, hydroxypropylcellulose; non-rate-limiting membrane; contact area 1.0 cm^2
Description: As a solution to this problem, MEL was applied transdermally on the skin of ABTT target area 10 using a patch that contained, in a solvent formulation, water, propylene glycol, lauric acid, and hydroxypropylcellulose, and also comprised a non-rate-limiting membrane designed to have active contact with an area 1.0 cm^2.

SMILES	time of peak concentration of caffeine after placement of the patch ([1]; 15 mm by 15 mm patch placed on ABTT terminus, FIG. 106 curve 1416)	time of peak concentration of caffeine after placement of the patch ([1]; 15 mm by 15 mm patch placed on upper arm, FIG. 106 curve 1414)	peak concentration from patch on ABTT terminus relative to peak concentration from patch on upper arm ([1]; 15 mm by 15 mm patches, concentration measured in the same location on the body)	elimination half-life [2]	therapeutic effect of patch delivering melatonin through the skin of ABTT target area [3]
Cn1c(=O)c2c(ncn2C)n(C)c1=O [caffeine]	about 30 minutes	five	more than twice as high	–	–
COc1ccc2[nH]cc(CCNC(C)=O)c2c1 [melatonin]	–	–	–	short	shown to provide an intended therapeutic effect
